Measured values: paper PMC3425665 (Journal of the American Chemical Society, 2012)

Molecular target: aspartate aminotransferase (AAT), K258A mutant (Escherichia coli, UniProt P00509, K246A, form not given)
Assay: X-ray crystallography
Type: binding
Details: covalent external aldimine with L-aspartate; replaces PLP

aspartate aminotransferase (AAT), K258A mutant, sequence (P00509 whole entry K246A, form open): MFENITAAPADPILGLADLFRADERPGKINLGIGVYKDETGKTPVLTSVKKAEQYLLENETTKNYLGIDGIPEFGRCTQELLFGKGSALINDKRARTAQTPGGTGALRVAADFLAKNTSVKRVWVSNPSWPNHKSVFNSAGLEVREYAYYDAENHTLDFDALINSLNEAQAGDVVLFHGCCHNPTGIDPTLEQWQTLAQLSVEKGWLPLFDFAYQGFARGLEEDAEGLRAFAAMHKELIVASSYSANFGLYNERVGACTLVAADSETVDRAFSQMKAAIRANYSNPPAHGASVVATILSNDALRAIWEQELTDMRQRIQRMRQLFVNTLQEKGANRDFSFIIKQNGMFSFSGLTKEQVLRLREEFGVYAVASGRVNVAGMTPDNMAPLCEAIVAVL

## Cc1ccc(COP(=O)(O)O)c(C=O)c1O [deazaPLP]
  X-ray crystallography (1.5 Å): structure of the K258A/deazaPLP/L-aspartate external aldimine intermediate determined here by X-ray crystallography
